# PubChem BioAssay (NCI)
#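 48-hour exposure; five concentrations; linearly interpolated endpoints. Definition used: TGI = concentration required for complete inhibition of growth.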
# Experiments:
# Assay in all cases: NCI tumour cell line growth inhibition, 48 h
# [1] = system: 786-0 renal
# [2] = system: A498 renal
# [3] = system: A549 NSCLC
# [4] = system: ACHN renal
# [5] = system: BT-549 breast
# [6] = system: CAKI-1 renal
# [7] = system: COLO 205 colon
# [8] = system: DLD-1 colon
# [9] = system: DMS 114 small cell lung
# [10] = system: DMS 273 small cell lung
# [11] = system: DU-145 prostate
# [12] = system: EKVX NSCLC
# [13] = system: HCC-2998 colon
# [14] = system: HCT-116 colon
# [15] = system: HCT-15 colon
# [16] = system: HL-60(TB) leukemia
# [17] = system: HOP-18 NSCLC
# [18] = system: HOP-62 NSCLC
# [19] = system: HOP-92 NSCLC
# [20] = system: HS 578T breast
# [21] = system: HT29 colon
# [22] = system: IGROV1 ovarian
# [23] = system: K-562 leukemia
# [24] = system: KM12 colon
# [25] = system: KM20L2 colon
# [26] = system: LOX IMVI melanoma
# [27] = system: LXFL 529 NSCLC
# [28] = system: M14 melanoma
# [29] = system: M19-MEL melanoma
# [30] = system: MALME-3M melanoma
# [31] = system: MCF7 breast
# [32] = system: MDA-MB-231 breast
# [33] = system: MDA-MB-435
# [34] = system: MDA-N
# [35] = system: MOLT-4 leukemia
# [36] = system: NCI-H226 lung
# [37] = system: NCI-H23 lung
# [38] = system: NCI-H460 lung
# [39] = system: NCI-H522 lung
# [40] = system: OVCAR-3 ovarian
# [41] = system: OVCAR-4 ovarian
# [42] = system: OVCAR-5 ovarian
# [43] = system: OVCAR-8 ovarian
# [44] = system: PC-3 prostate
# [45] = system: RPMI-8226 leukemia
# [46] = system: RXF 393 renal
# [47] = system: RXF-631 renal
# [48] = system: SF-268 CNS
# [49] = system: SF-295 CNS
# [50] = system: SF-539 CNS
# [51] = system: SK-MEL-2 melanoma
# [52] = system: SK-MEL-28 melanoma
# [53] = system: SK-MEL-5 melanoma
# [54] = system: SK-OV-3 ovarian
# [55] = system: SN12C renal
# [56] = system: SNB-19 CNS
# [57] = system: SNB-75 CNS
# [58] = system: SNB-78 CNS
# [59] = system: SR leukemia
# [60] = system: SW-620 colon
# [61] = system: T-47D breast
# [62] = system: TK-10 renal
# [63] = system: U251 CNS
# [64] = system: UACC-257 melanoma
# [65] = system: UACC-62 melanoma
# [66] = system: UO-31 renal
# [67] = system: CCRF-CEM leukemia
# [68] = system: NCI/ADR-RES ovarian
smiles,measurement,setting,value
O=C1C=CC(=O)c2ccc(=O)ccc21,TGI,[1],32.8 µM
same,TGI,[2],41.6 µM
same,TGI,[3],64.2 µM
same,TGI,[4],23.5 µM
same,TGI,[5],31.9 µM
same,TGI,[6],21 µM
same,TGI,[7],18.9 µM
same,TGI,[8],15.6 µM
same,TGI,[9],33.9 µM
same,TGI,[10],58.1 µM
same,TGI,[11],59.9 µM
same,TGI,[12],50.7 µM
same,TGI,[13],31.3 µM
same,TGI,[14],31.6 µM
same,TGI,[15],35.8 µM
same,TGI,[16],15.8 µM
same,TGI,[17],39.1 µM
same,TGI,[18],51.5 µM
same,TGI,[19],3.72 µM
same,TGI,[20],> 100 µM
same,TGI,[21],50.5 µM
same,TGI,[22],33.6 µM
same,TGI,[23],14.6 µM
same,TGI,[24],37.4 µM
same,TGI,[25],46.2 µM
same,TGI,[26],> 54.1 µM
same,TGI,[27],11.1 µM
same,TGI,[28],31.1 µM
same,TGI,[29],25.5 µM
same,TGI,[30],39.6 µM
same,TGI,[31],> 100 µM
same,TGI,[32],45.5 µM
same,TGI,[33],46 µM
same,TGI,[34],28.8 µM
same,TGI,[35],5.69 µM
same,TGI,[36],58.9 µM
same,TGI,[37],45.5 µM
same,TGI,[38],43.2 µM
same,TGI,[39],5.82 µM
same,TGI,[40],26.7 µM
same,TGI,[41],27.8 µM
same,TGI,[42],35 µM
same,TGI,[43],64.5 µM
same,TGI,[44],33 µM
same,TGI,[45],> 29.7 µM
same,TGI,[46],16.3 µM
same,TGI,[47],42.3 µM
same,TGI,[48],32.9 µM
same,TGI,[49],37.1 µM
same,TGI,[50],43.5 µM
same,TGI,[51],34.8 µM
same,TGI,[52],42.6 µM
same,TGI,[53],38.3 µM
same,TGI,[54],48.8 µM
same,TGI,[55],32.2 µM
same,TGI,[56],27.1 µM
same,TGI,[57],39 µM
same,TGI,[58],64.5 µM
same,TGI,[59],6.3 µM
same,TGI,[60],14.4 µM
same,TGI,[61],5.55 µM
same,TGI,[62],33.9 µM
same,TGI,[63],30.1 µM
same,TGI,[64],30.4 µM
same,TGI,[65],29.9 µM
same,TGI,[66],22.1 µM
O=C(/C=C/c1ccc(OCCSCCCCCCCCCCSCCOc2ccc(/C=C/C(=O)c3ccc(Cl)cc3)cc2)cc1)c1ccc(Cl)cc1,TGI,[1],> 100 µM
same,TGI,[2],> 100 µM
same,TGI,[3],> 100 µM
same,TGI,[4],> 100 µM
same,TGI,[5],> 100 µM
same,TGI,[6],> 100 µM
same,TGI,[67],> 100 µM
same,TGI,[7],> 100 µM
same,TGI,[8],> 100 µM
same,TGI,[9],> 100 µM
same,TGI,[10],> 100 µM
same,TGI,[11],> 100 µM
same,TGI,[12],> 100 µM
same,TGI,[13],> 100 µM
same,TGI,[14],> 100 µM
same,TGI,[15],> 100 µM
same,TGI,[16],> 100 µM
same,TGI,[17],> 100 µM
same,TGI,[18],95.4 µM
same,TGI,[19],81.6 µM
same,TGI,[20],> 100 µM
same,TGI,[21],> 100 µM
same,TGI,[22],> 100 µM
same,TGI,[23],> 100 µM
same,TGI,[24],> 100 µM
same,TGI,[25],> 100 µM
same,TGI,[26],> 100 µM
same,TGI,[27],> 100 µM
same,TGI,[28],> 100 µM
same,TGI,[29],> 100 µM
same,TGI,[30],> 100 µM
same,TGI,[31],> 100 µM
same,TGI,[32],> 100 µM
same,TGI,[33],> 100 µM
same,TGI,[34],> 100 µM
same,TGI,[35],> 100 µM
same,TGI,[36],> 100 µM
same,TGI,[37],> 100 µM
same,TGI,[38],> 100 µM
same,TGI,[39],> 100 µM
same,TGI,[68],> 100 µM
same,TGI,[40],> 100 µM
same,TGI,[41],> 100 µM
same,TGI,[42],> 100 µM
same,TGI,[43],> 100 µM
same,TGI,[44],> 100 µM
same,TGI,[45],> 100 µM
same,TGI,[46],> 80.6 µM
same,TGI,[47],> 100 µM
same,TGI,[48],> 100 µM
same,TGI,[49],> 97.6 µM
same,TGI,[50],> 81.7 µM
same,TGI,[51],> 100 µM
same,TGI,[52],> 100 µM
same,TGI,[53],> 100 µM
same,TGI,[54],> 92.8 µM
same,TGI,[55],> 100 µM
same,TGI,[56],> 100 µM
same,TGI,[57],63.3 µM
same,TGI,[58],> 100 µM
same,TGI,[59],> 100 µM
same,TGI,[60],> 100 µM
same,TGI,[61],> 100 µM
same,TGI,[62],> 100 µM
same,TGI,[63],> 100 µM
same,TGI,[64],> 100 µM
same,TGI,[65],> 100 µM
same,TGI,[66],> 100 µM
